Experiments:
ABUTH [1] = assay: Pre-emergence herbicidal action against ABUTH; type: in vivo, Abutilon theophrasti
Summary of the method: (§1)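 Seeds sown in sandy loam, soil-covered; compound sprayed on soil surface pre-emergence. Application: WP/EC, 600–800 l/ha, 0.2% wetting agent. Readout: visual % damage at 3 weeks.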

ALOMY [2] = assay: Pre-emergence herbicidal action against ALOMY; type: in vivo, Alopecurus myosuroides; conditions: 80 g/ha, pre-emergence, scored visually after 3 weeks vs untreated controls (100% = plants have died, 0% = like control plants)
Summary of the method: as §1

AMARE [3] = assay: Pre-emergence herbicidal action against AMARE; type: in vivo, Amaranthus retroflexus
Summary of the method: as §1

AVEFA = assay: Pre-emergence herbicidal action against AVEFA; type: in vivo, Avena fatua; conditions: 80 g/ha, pre-emergence
Summary of the method: as §1

ECHCG [4] = assay: Pre-emergence herbicidal action against ECHCG; type: in vivo, Echinochloa crus-galli; conditions: 80 g/ha
Summary of the method: as §1

LOLRI = assay: Pre-emergence herbicidal action against LOLRI; type: in vivo, Lolium rigidum; conditions: 80 g/ha
Summary of the method: as §1

MATIN [5] = assay: Pre-emergence herbicidal action against MATIN; type: in vivo, Matricaria inodora
Summary of the method: as §1

PHBPU [6] = assay: Pre-emergence herbicidal action against PHBPU; type: in vivo, Pharbitis purpurea; conditions: dosage 80 g/ha
Summary of the method: as §1

POLCO = assay: Pre-emergence herbicidal action against POLCO; type: in vivo, Polygonum convolvulus; conditions: dosage 80 g/ha
Summary of the method: as §1

SETVI [7] = assay: Pre-emergence herbicidal action against SETVI; type: in vivo, Setaria viridis
Summary of the method: as §1

VERPE [8] = assay: Pre-emergence herbicidal action against VERPE; type: in vivo, Veronica persica; conditions: dosage 80 g/ha
Summary of the method: as §1

VIOTR [9] = assay: Pre-emergence herbicidal action against VIOTR; type: in vivo, Viola tricolor
Summary of the method: as §1

DIGSA [10] = assay: Pre-emergence herbicidal action against DIGSA; type: in vivo, Digitaria sanguinalis
Summary of the method: as §1

ABUTH [11] = assay: Post-emergence herbicidal action against ABUTH; type: in vivo, Abutilon theophrasti; conditions: visual assessment about 3 weeks after treatment vs untreated controls
Summary of the method: (§2)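 Sandy loam, greenhouse; treatment 2–3 weeks after sowing, one-leaf stage. Aqueous suspension or emulsion from WP/EC sprayed on foliage (600–800 l/ha, 0.2% wetting agent). Readout: visual % action, ~3 weeks.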

ALOMY [12] = assay: Post-emergence herbicidal action against ALOMY; type: in vivo, Alopecurus myosuroides; conditions: Alopecurus myosuroides, 504 h, dosage 20 g/ha, visual assessment about 3 weeks after treatment vs untreated controls
Summary of the method: as §2

AMARE [13] = assay: Post-emergence herbicidal action against AMARE; type: in vivo, Amaranthus retroflexus; conditions: 20 g/ha, visual assessment about 3 weeks after treatment, 100% = plants have died, 0% = like control plants
Summary of the method: as §2

ECHCG [14] = assay: Post-emergence herbicidal action against ECHCG; type: in vivo, Echinochloa crus-galli
Summary of the method: as §2

MATIN [15] = assay: Post-emergence herbicidal action against MATIN; type: in vivo, Matricaria inodora; conditions: dosage 20 g/ha
Summary of the method: as §2

PHBPU [16] = assay: Post-emergence herbicidal action against PHBPU; type: in vivo, Pharbitis purpurea
Summary of the method: as §2

SETVI [17] = assay: Post-emergence herbicidal action against SETVI; type: in vivo, Setaria viridis; conditions: dosage 20 g/ha
Summary of the method: as §2

VERPE [18] = assay: Post-emergence herbicidal action against VERPE; type: in vivo, Veronica persica; conditions: Veronica persica, 504 h, 20 g/ha
Summary of the method: as §2

DIGSA [19] = assay: Post-emergence herbicidal action against DIGSA; type: in vivo, Digitaria sanguinalis
Summary of the method: as §2

STEME = assay: Pre-emergence herbicidal action against STEME; type: in vivo, Stellaria media
Summary of the method: as §1

VIOTR [20] = assay: Post-emergence herbicidal action against VIOTR; type: in vivo, Viola tricolor
Summary of the method: as §2

[21] = 80 g/ha, scored visually after 3 weeks vs untreated controls (100% = plants have died, 0% = like control plants)

Compound `CC(C)NC(=O)c1c(C(F)F)ccc(C(=O)Nc2nnnn2C)c1Cl` [Example 1-155] has a pest or weed control at 80 g/ha (ABUTH [1]; Abutilon theophrasti, 504 h, 80 g/ha, scored visually after 3 weeks vs untreated controls (100% = plants have died, 0% = like control plants)) of 100%, a pest or weed control at 20 g/ha (ABUTH [1]; Abutilon theophrasti, 504 h, dosage 20 g/ha, scored visually after 3 weeks vs untreated controls, 100% = plants have died, 0% = like control plants, read-out: Pre-emergence action against ABUTH (herbicidal activity in percent)) of 100% and a pest or weed control at 80 g/ha (ALOMY [2]; Alopecurus myosuroides, 504 h) of 90%. The pest or weed control at 20 g/ha (AMARE [3]; Amaranthus retroflexus, 504 h, 20 g/ha, scored visually after 3 weeks vs untreated controls, 100% = plants have died, 0% = like control plants) was 100%, the pest or weed control at 80 g/ha (AMARE [3]; Amaranthus retroflexus, 504 h, 80 g/ha, scored visually after 3 weeks vs untreated controls, 100% = plants have died, 0% = like control plants) was 100% and the pest or weed control at 80 g/ha (AVEFA; Avena fatua, 504 h) was 90%. It also gave a pest or weed control at 80 g/ha (ECHCG [4]; Echinochloa crus-galli, 504 h) of 100%, a pest or weed control at 80 g/ha (LOLRI; Lolium rigidum, 504 h) of 90% and a pest or weed control at 20 g/ha (MATIN [5]; Tripleurospermum inodorum, 504 h, dosage 20 g/ha) of 100%. It also gave a pest or weed control at 80 g/ha (MATIN [5]; Tripleurospermum inodorum, 504 h, dosage 80 g/ha) of 100%, a pest or weed control at 80 g/ha (PHBPU [6]; Ipomoea purpurea, 504 h) of 100% and a pest or weed control at 80 g/ha (POLCO; Fallopia convolvulus, 504 h) of 90%. The pest or weed control at 20 g/ha (SETVI [7]; Setaria viridis, 504 h, dosage 20 g/ha) was 80%, the pest or weed control at 80 g/ha (SETVI [7]; Setaria viridis, 504 h, dosage 80 g/ha) was 100% and the pest or weed control at 80 g/ha (VERPE [8]; Veronica persica, 504 h) was 100%. It also gave a pest or weed control at 80 g/ha (VIOTR [9]; Viola tricolor, 504 h, dosage 80 g/ha) of 100%, a pest or weed control at 20 g/ha (DIGSA [10]; Digitaria sanguinalis, 504 h, dosage 20 g/ha) of 100% and a pest or weed control at 80 g/ha (DIGSA [10]; Digitaria sanguinalis, 504 h, dosage 80 g/ha) of 100%. The pest or weed control at 5 g/ha (ABUTH [11]; Abutilon theophrasti, 504 h, dosage 5 g/ha) was 80%, the pest or weed control at 20 g/ha (ABUTH [11]; Abutilon theophrasti, 504 h, dosage 20 g/ha) was 90% and the pest or weed control at 20 g/ha (ALOMY [12]) was 90%. For the same compound, the pest or weed control at 20 g/ha (AMARE [13]; Amaranthus retroflexus, 504 h) was 90%, the pest or weed control at 5 g/ha (ECHCG [14]; Echinochloa crus-galli, 504 h, dosage 5 g/ha) was 90% and the pest or weed control at 20 g/ha (ECHCG [14]; Echinochloa crus-galli, 504 h, dosage 20 g/ha) was 90%. For the same compound, the pest or weed control at 20 g/ha (MATIN [15]; Tripleurospermum inodorum, 504 h) was 80%, the pest or weed control at 5 g/ha (PHBPU [16]; Ipomoea purpurea, 504 h, dosage 5 g/ha) was 90% and the pest or weed control at 20 g/ha (PHBPU [16]; Ipomoea purpurea, 504 h, dosage 20 g/ha) was 90%. For the same compound, the pest or weed control at 20 g/ha (SETVI [17]; Setaria viridis, 504 h) was 80%, the pest or weed control at 20 g/ha (VERPE [18]) was 80% and the pest or weed control at 5 g/ha (DIGSA [19]; Digitaria sanguinalis, 504 h, 5 g/ha) was 90%. For the same compound, the pest or weed control at 20 g/ha (DIGSA [19]; Digitaria sanguinalis, 504 h, 20 g/ha) was 90%.
With `CCNC(=O)c1c(C(F)F)ccc(C(=O)Nc2nnnn2CC)c1C` [Example 2-45] the “Pre-emergence action against ABUTH (herbicidal activity)” value (ABUTH [1]; [21]) was 100%, the “Pre-emergence action against ABUTH (herbicidal activity in percent)” value (ABUTH [1]; dosage 20 g/ha, scored visually after 3 weeks vs untreated controls, 100% = plants have died, 0% = like control plants) was 80% and the “Pre-emergence action against ALOMY (herbicidal activity)” value (ALOMY [2]) was 90%. For the same compound, the “Pre-emergence action against AMARE in %” value (AMARE [3]; 20 g/ha, scored visually after 3 weeks vs untreated controls, 100% = plants have died, 0% = like control plants) was 100%, the “Pre-emergence action against AMARE in %” value (AMARE [3]; [21]) was 100% and the “Pre-emergence action against AVEFA in %” value (AVEFA) was 100%. For the same compound, the “Pre-emergence action against ECHCG in %” value (ECHCG [4]) was 100%, the “Pre-emergence action against LOLRI in %” value (LOLRI) was 80% and the “Pre-emergence action against MATIN in %” value (MATIN [5]; dosage 20 g/ha) was 90%. The “Pre-emergence action against MATIN in %” value (MATIN [5]; dosage 80 g/ha) was 100%, the “Pre-emergence action against PHBPU in %” value (PHBPU [6]) was 80% and the “Pre-emergence action against POLCO in %” value (POLCO) was 90%. The “Pre-emergence action against SETVI in %” value (SETVI [7]; dosage 80 g/ha) was 100%, the “Pre-emergence action against STEME in %” value (STEME; dosage 20 g/ha) was 90% and the “Pre-emergence action against STEME in %” value (STEME; dosage 80 g/ha) was 100%. The “Pre-emergence action against VERPE in %” value (VERPE [8]) was 90%, the “Pre-emergence action against VIOTR in %” value (VIOTR [9]; dosage 20 g/ha) was 90% and the “Pre-emergence action against VIOTR in %” value (VIOTR [9]; dosage 80 g/ha) was 100%. For the same compound, the “Pre-emergence action against DIGSA in %” value (DIGSA [10]; dosage 20 g/ha) was 90%, the “Pre-emergence action against DIGSA in %” value (DIGSA [10]; dosage 80 g/ha) was 100% and the “Post-emergence action against ABUTH in %” value (ABUTH [11]; dosage 5 g/ha) was 80%. The “Post-emergence action against ABUTH in %” value (ABUTH [11]; dosage 20 g/ha) was 80%, the “Post-emergence action at 20 g/ha against AMARE in %” value (AMARE [13]) was 100% and the “Post-emergence action against ECHCG in %” value (ECHCG [14]; dosage 20 g/ha) was 80%. For the same compound, the “Post-emergence action against MATIN in %” value (MATIN [15]) was 80%, the “Post-emergence action against PHBPU in %” value (PHBPU [16]; dosage 20 g/ha) was 80% and the “Post-emergence action against SETVI in %” value (SETVI [17]) was 80%. The “Post-emergence action against VIOTR in %” value (VIOTR [20]; 5 g/ha) was 80%, the “Post-emergence action against VIOTR in %” value (VIOTR [20]; 20 g/ha) was 100% and the “Post-emergence action against DIGSA” value (DIGSA [19]; 20 g/ha) was 80%.
